# What was measured:
# mouse PXR = mouse PXR (Mus musculus, UniProt O54915); conditions: cited from earlier work
# [1] = molecular target: T1, LXRα-RXR heterodimers / SRC-1 (Homo sapiens, UniProt Q13133); experiment: In vitro coactivator recruitment/displacement assay (gel), LXRα, RXR, GST-SRC-1, 32P-LXRE probe; type: biochemical; conditions: 10 μM
# T1 construct: made in house; host or cells: receptors translated in vitro
# Method: This was tested more directly using an in vitro coactivator recruitment/coactivator displacement assay. This assay has the advantage that it is performed with receptors bound to DNA and that it measures a direct interaction between receptor and coactivator with no interference by other proteins that may indirectly stabilize the complex. The assay was performed by mixing in vitro translated LXRα or LXRβ, RXR, 5 μg of purified GST-SRC-1 and a ^32P-labeled LXRE probe with or without 10 μM Clotrimazole according to previously described methods. Wang et al., Mol. Cell 3:543-553, 1999. The complexes then were separated through 5.5% polyacrylamide gels. The probe used represents a DR-4 element derived from the human SREBP-1c promoter (nt 337-361, accession no. AB046200).
# [2] = system: SRE reporter (FAS proximal promoter); experiment: SRE reporter (FAS proximal promoter-luciferase) assay in CV-1 cells; type: cell-based
# Method: Since LXR regulates SREBP-1c expression, LXR also should regulate activities downstream of SREBP-1c. To test this, CV-1 cells were transiently transfected with as in Example 6, but with the SRE or the SREm reporter, SREBP-1c-dependent reporter constructs consisting of the FAS proximal promoter linked to the luciferase gene. […] See Wang et al., Mol. Cell 3:543-553, 1999, the disclosures of which are hereby incorporated by reference. Cells then were treated as in Example 6 with the indicated compounds, Clotrimazole or 25-hydroxycholesterol (25-OH cholesterol). 25-OH cholesterol is known to repress the synthesis of SREBP-1c and is therefore used to eliminate the effects of this transcription factor on the FAS promoter (SRE).
# [3] = molecular target: T2, LXRα - coactivator SRC-1 interaction (Homo sapiens, UniProt Q13133); experiment: Mammalian two-hybrid assay Gal-SRC-1 / VP-LXRα LBD / RXR LBD in CV-1 cells; type: cell-based
# T2 construct: expression plasmids for Gal-SRC-1, VP-LXRα LBD or VP-LXRβ LBD, the RXR LBD; expressed in transfected cells; host or cells: CV-1 cells
# From the text: One characteristic of nuclear receptor antagonists is their ability to displace coactivators bound to ligand-activated receptors. Thus, if Clotrimazole is an antagonist of LXR, it should inhibit the recruitment of coactivators. To test this, a mammalian two-hybrid assay was used. In this assay, CV-1 cells were transfected with Gal-SRC-1, VP-LXRα or VP-LXRβ, the RXR LBD and a reporter construct. In this type of assay, therefore, only a protein-protein interaction between the coactivator SRC-1 and LXR can result in transcriptional activity. The mammalian two-hybrid assay of FIG. 6 was performed by transfecting CV-1 cells with expression plasmids for Gal-SRC-1, VP-LXRα LBD or VP-LXRβ LBD, the RXR LBD and the USAGx4 Tkluc reporter. Cells were treated for 40 hours with Clotrimazole before luciferase and β-galactosidase activities were measured. Gal-SRC in FIG. 6 refers to a fusion between the Gal4 DNA binding domain and the three receptor interaction domains of SRC-1.
# human LXRα = molecular target: T3, human LXRα (Homo sapiens, UniProt Q13133); experiment: Full-length hLXRα/hRXRα LXREx3 TK-Luc reporter assay in transfected CV-1 cells; type: cell-based; conditions: 20 μM, 40 hours
# T3 construct: expressed in transfected cells; host or cells: CV-1 cells
# T3 sequence (Q13133 1-447): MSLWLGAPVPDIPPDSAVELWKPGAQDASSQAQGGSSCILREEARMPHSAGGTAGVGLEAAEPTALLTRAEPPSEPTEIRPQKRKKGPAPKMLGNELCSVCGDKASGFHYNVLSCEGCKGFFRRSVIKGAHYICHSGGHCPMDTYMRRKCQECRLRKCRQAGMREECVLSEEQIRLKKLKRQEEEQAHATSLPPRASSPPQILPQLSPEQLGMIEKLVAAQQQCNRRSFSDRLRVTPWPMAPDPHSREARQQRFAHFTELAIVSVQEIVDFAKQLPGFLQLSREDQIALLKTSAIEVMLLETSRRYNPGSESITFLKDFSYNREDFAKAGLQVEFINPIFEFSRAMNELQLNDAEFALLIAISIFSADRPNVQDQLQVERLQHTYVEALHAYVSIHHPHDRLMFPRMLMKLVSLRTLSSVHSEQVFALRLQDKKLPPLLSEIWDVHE
# T3 sequence (P19793 1-462 partner): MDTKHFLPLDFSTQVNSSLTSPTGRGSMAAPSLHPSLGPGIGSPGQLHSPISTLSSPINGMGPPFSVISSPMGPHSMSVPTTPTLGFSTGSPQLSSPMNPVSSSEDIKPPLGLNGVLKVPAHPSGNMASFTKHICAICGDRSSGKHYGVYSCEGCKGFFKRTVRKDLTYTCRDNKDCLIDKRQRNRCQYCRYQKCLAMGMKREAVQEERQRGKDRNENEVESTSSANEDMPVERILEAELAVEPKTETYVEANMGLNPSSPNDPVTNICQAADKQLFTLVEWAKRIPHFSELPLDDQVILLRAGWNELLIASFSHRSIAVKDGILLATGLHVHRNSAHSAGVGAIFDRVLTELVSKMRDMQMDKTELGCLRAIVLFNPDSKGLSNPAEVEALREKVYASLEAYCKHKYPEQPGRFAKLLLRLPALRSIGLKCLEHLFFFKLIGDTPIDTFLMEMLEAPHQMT
# Method: CV-1 cells were grown in DMEM supplemented with 10% resin-charcoal stripped fetal bovine serum, 50 U/ml penicillin G and 50 μg/ml streptomycin sulfate at 37° C. in 5% CO2. Cells were plated to 50-80% confluence one day prior to transfection using phenol red-free DMEM-FBS. The cells were transfected by lipofection using N-[1-(2,3-dioleoyloxy)propyl]-N,N,N-ammonium methyl sulfate according to manufacturer's instructions (Boehringer Mannheim).
# Genes encoding the following full-length proteins, which are suitable for use in the studies described herein, were cloned into pCMX: human RXRα (Gene Bank accession X52773) and human LXRα (GenBank accession U22662). The cells were transfected with CMX-βgal and luciferase constructs. The CMX-βGal construct contained the ligand binding domain of human RXR (hRXRα) and the ligand binding domain of human LXRα (hLXRα) as indicated in FIG. 1. The luciferase reporter construct (LXREx3 TK-Luc) contained the herpes virus thymidine kinase promoter (−105/+51) linked to three copies of the response element LXRE. After transfection, the cells were treated with 20 μM of a synthetic azole test compound or vehicle alone for 40 hours in phenol red-free DMEM-FBS.
# human CAR = human CAR (Homo sapiens, UniProt Q14994); conditions: cited from earlier work
# human CAR, sequence (Q14994 whole entry): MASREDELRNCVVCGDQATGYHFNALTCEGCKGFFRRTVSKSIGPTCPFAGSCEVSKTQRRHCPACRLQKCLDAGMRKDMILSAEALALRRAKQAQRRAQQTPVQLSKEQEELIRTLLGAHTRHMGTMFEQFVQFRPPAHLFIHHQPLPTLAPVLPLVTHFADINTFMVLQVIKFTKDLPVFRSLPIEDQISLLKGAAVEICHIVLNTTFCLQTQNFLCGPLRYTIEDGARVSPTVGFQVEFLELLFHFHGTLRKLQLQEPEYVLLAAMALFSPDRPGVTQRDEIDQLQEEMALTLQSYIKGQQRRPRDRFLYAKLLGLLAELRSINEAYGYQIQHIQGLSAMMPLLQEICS
# mouse PXR, sequence (O54915 whole entry): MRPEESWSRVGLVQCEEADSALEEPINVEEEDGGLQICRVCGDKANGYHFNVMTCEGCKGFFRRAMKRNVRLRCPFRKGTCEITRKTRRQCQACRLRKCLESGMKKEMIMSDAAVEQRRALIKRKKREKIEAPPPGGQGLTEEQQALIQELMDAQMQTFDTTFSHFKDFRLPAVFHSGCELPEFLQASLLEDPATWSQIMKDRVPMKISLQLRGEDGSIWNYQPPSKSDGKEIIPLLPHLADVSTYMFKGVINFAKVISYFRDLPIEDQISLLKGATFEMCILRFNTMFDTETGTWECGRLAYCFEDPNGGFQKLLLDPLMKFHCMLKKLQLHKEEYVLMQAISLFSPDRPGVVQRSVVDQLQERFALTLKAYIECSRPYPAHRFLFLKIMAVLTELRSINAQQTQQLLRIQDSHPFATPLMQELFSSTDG
smiles,measurement,setting,value
Clc1ccccc1C(c1ccccc1)(c1ccccc1)n1ccnc1 [Clotrimazole],activity on mouse PXR,mouse PXR,agonist
same,effect on LXRα-RXR heterodimers (bound to LXRE probe),[1]; lane 3,no effect
same,interaction of LXRα-RXR with SRC-1,[1]; lane 4,prevented the interaction with SRC-1
same,LXRα induction of SRE reporter activity,[2]; LXRα co-transfected (3-fold increase),prevented this induction
same,LXRβ induction of SRE reporter activity,[2]; LXRβ co-expression (almost 2-fold increase),prevented this induction
same,activity of reporter containing mutated SRE,[2]; SREm reporter,no significant effects
same,repression of SRE reporter,[2]; absence of LXR,only a weak repressive effect
same,interaction of LXRα with coactivator SRC-1,"[3]; 40 hours, two-hybrid",inhibited this interaction
same,basal transcription,[3]; two-hybrid specificity control,did not inhibit basal transcription
same,"antagonism of constitutive activation mediated by LXR (hLXRα activity, LXREx3 TK-Luc)",human LXRα,antagonize the constitutive activation mediated by LXR
same,activity on human CAR,human CAR,antagonizes
